Source: the supplement of paper PMC10883282
± gives the standard deviation of the averaged measurements.

Tests used:
Experiment in all cases: relative viability vs DMSO control (72 h) (fraction); higher = more viable cells
SK-ES-1 = tested on: SK-ES-1
How it was run: (§1)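 Serially diluted compound, 2.5 µl from source plates spanning 10 mM to 0.0002 mM, was added 24 h after sarcoma cell lines were seeded in 384-well plates at densities targeting 80–90% confluence. Plates then sat 72 h at 37 °C, 5% CO2, with 0.1% DMSO vehicle and a 5 µM positive control. Relative viability came from ATPLite as percent growth, averaged over up to triplicate wells, and was rescaled with 1 as full and 0 as none.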

RD = tested on: RD
How it was run: as §1

SYO-1 = tested on: SYO-1
How it was run: as §1

HT1080 = tested on: HT1080
How it was run: as §1

SK-LMS-1 = tested on: SK-LMS-1
How it was run: as §1

MES-SA = tested on: MES-SA
How it was run: as §1

G401 = tested on: G401
How it was run: as §1

SW1353 = tested on: SW1353
How it was run: as §1

KHOS-240S = tested on: KHOS-240S
How it was run: as §1

SW982 = tested on: SW982
How it was run: as §1

RD-ES = tested on: RD-ES
How it was run: as §1

VA-ES-BJ = tested on: VA-ES-BJ
How it was run: as §1

CO[C@H]1C[C@@H]2CC[C@@H](C)[C@@](O)(O2)C(=O)C(=O)N2CCCC[C@H]2C(=O)O[C@H]([C@H](C)C[C@@H]2CC[C@@H](OC(=O)C(C)(CO)CO)[C@H](OC)C2)CC(=O)[C@H](C)/C=C(\C)[C@@H](O)[C@@H](OC)C(=O)[C@H](C)C[C@H](C)/C=C/C=C/C=C/1C [Temsirolimus]
relative viability (SK-ES-1; 0.00017 µM): 0.959 ± 0.019
relative viability (SK-ES-1; 0.00051 µM): 0.904 ± 0.031
relative viability (SK-ES-1; 0.00152 µM): 0.8013 ± 0.0064
relative viability (SK-ES-1; 0.00457 µM): 0.707 ± 0.018
relative viability (SK-ES-1; 0.01372 µM): 0.64 ± 0.06
relative viability (SK-ES-1; 0.04115 µM): 0.579 ± 0.012
relative viability (SK-ES-1; 0.1235 µM): 0.52 ± 0.017
relative viability (SK-ES-1; 0.3704 µM): 0.538 ± 0.04
relative viability (SK-ES-1; 1.111 µM): 0.519 ± 0.017
relative viability (SK-ES-1; 3.333 µM): 0.432 ± 0.024
relative viability (SK-ES-1; 10 µM): 0.126 ± 0.034
relative viability (RD; 0.00017 µM): 1.09 ± 0.063
relative viability (RD; 0.00051 µM): 1.01 ± 0.064
relative viability (RD; 0.00152 µM): 0.91 ± 0.069
relative viability (RD; 0.00457 µM): 0.84 ± 0.059
relative viability (RD; 0.01372 µM): 0.792 ± 0.052
relative viability (RD; 0.04115 µM): 0.755 ± 0.057
relative viability (RD; 0.1235 µM): 0.735 ± 0.032
relative viability (RD; 0.3704 µM): 0.681 ± 0.043
relative viability (RD; 1.111 µM): 0.667 ± 0.021
relative viability (RD; 3.333 µM): 0.578 ± 0.07
relative viability (RD; 10 µM): 0.441 ± 0.037
relative viability (SYO-1; 0.00017 µM): 0.884 ± 0.038
relative viability (SYO-1; 0.00051 µM): 0.877 ± 0.065
relative viability (SYO-1; 0.00152 µM): 0.878 ± 0.035
relative viability (SYO-1; 0.00457 µM): 0.83 ± 0.063
relative viability (SYO-1; 0.01372 µM): 0.798 ± 0.065
relative viability (SYO-1; 0.04115 µM): 0.749 ± 0.062
relative viability (SYO-1; 0.1235 µM): 0.687 ± 0.056
relative viability (SYO-1; 0.3704 µM): 0.633 ± 0.051
relative viability (SYO-1; 1.111 µM): 0.589 ± 0.024
relative viability (SYO-1; 3.333 µM): 0.544 ± 0.045
relative viability (SYO-1; 10 µM): 0.323 ± 0.017
relative viability (HT1080; 0.00017 µM): 1.02 ± 0.045
relative viability (HT1080; 0.00051 µM): 1.01 ± 0.035
relative viability (HT1080; 0.00152 µM): 1.05 ± 0.043
relative viability (HT1080; 0.00457 µM): 1.01 ± 0.041
relative viability (HT1080; 0.01372 µM): 0.95 ± 0.025
relative viability (HT1080; 0.04115 µM): 0.918 ± 0.036
relative viability (HT1080; 0.1235 µM): 0.936 ± 0.044
relative viability (HT1080; 0.3704 µM): 0.929 ± 0.033
relative viability (HT1080; 1.111 µM): 0.908 ± 0.039
relative viability (HT1080; 3.333 µM): 0.8 ± 0.047
relative viability (HT1080; 10 µM): 0.0491 ± 0.0031
relative viability (SK-LMS-1; 0.00017 µM): 0.916 ± 0.028
relative viability (SK-LMS-1; 0.00051 µM): 0.699 ± 0.035
relative viability (SK-LMS-1; 0.00152 µM): 0.6325 ± 0.004
relative viability (SK-LMS-1; 0.00457 µM): 0.597 ± 0.017
relative viability (SK-LMS-1; 0.01372 µM): 0.537 ± 0.022
relative viability (SK-LMS-1; 0.04115 µM): 0.495 ± 0.012
relative viability (SK-LMS-1; 0.1235 µM): 0.477 ± 0.031
relative viability (SK-LMS-1; 0.3704 µM): 0.472 ± 0.021
relative viability (SK-LMS-1; 1.111 µM): 0.464 ± 0.02
relative viability (SK-LMS-1; 3.333 µM): 0.441 ± 0.005
relative viability (SK-LMS-1; 10 µM): 0.0134 ± 0.001
relative viability (MES-SA; 0.00017 µM): 0.814 ± 0.042
relative viability (MES-SA; 0.00051 µM): 0.651 ± 0.03
relative viability (MES-SA; 0.00152 µM): 0.497 ± 0.042
relative viability (MES-SA; 0.00457 µM): 0.423 ± 0.008
relative viability (MES-SA; 0.01372 µM): 0.382 ± 0.022
relative viability (MES-SA; 0.04115 µM): 0.3571 ± 0.003
relative viability (MES-SA; 0.1235 µM): 0.353 ± 0.021
relative viability (MES-SA; 0.3704 µM): 0.3494 ± 0.0012
relative viability (MES-SA; 1.111 µM): 0.343 ± 0.018
relative viability (MES-SA; 3.333 µM): 0.314 ± 0.015
relative viability (MES-SA; 10 µM): 0.223 ± 0.008
relative viability (G401; 0.00017 µM): 0.945 ± 0.038
relative viability (G401; 0.00051 µM): 0.917 ± 0.049
relative viability (G401; 0.00152 µM): 0.869 ± 0.048
relative viability (G401; 0.00457 µM): 0.82 ± 0.064
relative viability (G401; 0.01372 µM): 0.766 ± 0.033
relative viability (G401; 0.04115 µM): 0.706 ± 0.022
relative viability (G401; 0.1235 µM): 0.665 ± 0.011
relative viability (G401; 0.3704 µM): 0.637 ± 0.025
relative viability (G401; 1.111 µM): 0.621 ± 0.0071
relative viability (G401; 3.333 µM): 0.586 ± 0.023
relative viability (G401; 10 µM): 0.396 ± 0.034
relative viability (SW1353; 0.00017 µM): 0.892 ± 0.051
relative viability (SW1353; 0.00051 µM): 0.859 ± 0.059
relative viability (SW1353; 0.00152 µM): 0.827 ± 0.1
relative viability (SW1353; 0.00457 µM): 0.781 ± 0.1
relative viability (SW1353; 0.01372 µM): 0.745 ± 0.12
relative viability (SW1353; 0.04115 µM): 0.72 ± 0.06
relative viability (SW1353; 0.1235 µM): 0.68 ± 0.046
relative viability (SW1353; 0.3704 µM): 0.664 ± 0.027
relative viability (SW1353; 1.111 µM): 0.63 ± 0.046
relative viability (SW1353; 3.333 µM): 0.602 ± 0.05
relative viability (SW1353; 10 µM): 0.149 ± 0.013
relative viability (KHOS-240S; 0.00017 µM): 1.01 ± 0.043
relative viability (KHOS-240S; 0.00051 µM): 0.954 ± 0.06
relative viability (KHOS-240S; 0.00152 µM): 0.886 ± 0.05
relative viability (KHOS-240S; 0.00457 µM): 0.833 ± 0.073
relative viability (KHOS-240S; 0.01372 µM): 0.807 ± 0.066
relative viability (KHOS-240S; 0.04115 µM): 0.802 ± 0.065
relative viability (KHOS-240S; 0.1235 µM): 0.763 ± 0.068
relative viability (KHOS-240S; 0.3704 µM): 0.748 ± 0.072
relative viability (KHOS-240S; 1.111 µM): 0.662 ± 0.11
relative viability (KHOS-240S; 3.333 µM): 0.581 ± 0.14
relative viability (KHOS-240S; 10 µM): 0.222 ± 0.058
relative viability (SW982; 0.00017 µM): 0.921 ± 0.087
relative viability (SW982; 0.00051 µM): 0.828 ± 0.022
relative viability (SW982; 0.00152 µM): 0.724 ± 0.025
relative viability (SW982; 0.00457 µM): 0.667 ± 0.032
relative viability (SW982; 0.01372 µM): 0.657 ± 0.059
relative viability (SW982; 0.04115 µM): 0.657 ± 0.059
relative viability (SW982; 0.1235 µM): 0.626 ± 0.045
relative viability (SW982; 0.3704 µM): 0.595 ± 0.057
relative viability (SW982; 1.111 µM): 0.562 ± 0.063
relative viability (SW982; 3.333 µM): 0.473 ± 0.076
relative viability (SW982; 10 µM): 0.385 ± 0.063
relative viability (RD-ES; 0.00017 µM): 0.908 ± 0.032
relative viability (RD-ES; 0.00051 µM): 0.865 ± 0.076
relative viability (RD-ES; 0.00152 µM): 0.771 ± 0.095
relative viability (RD-ES; 0.00457 µM): 0.745 ± 0.058
relative viability (RD-ES; 0.01372 µM): 0.687 ± 0.098
relative viability (RD-ES; 0.04115 µM): 0.656 ± 0.079
relative viability (RD-ES; 0.1235 µM): 0.625 ± 0.081
relative viability (RD-ES; 0.3704 µM): 0.568 ± 0.081
relative viability (RD-ES; 1.111 µM): 0.526 ± 0.076
relative viability (RD-ES; 3.333 µM): 0.435 ± 0.089
relative viability (RD-ES; 10 µM): 0.107 ± 0.075
relative viability (VA-ES-BJ; 0.00017 µM): 0.864 ± 0.052
relative viability (VA-ES-BJ; 0.00051 µM): 0.723 ± 0.024
relative viability (VA-ES-BJ; 0.00152 µM): 0.577 ± 0.027
relative viability (VA-ES-BJ; 0.00457 µM): 0.547 ± 0.026
relative viability (VA-ES-BJ; 0.01372 µM): 0.487 ± 0.031
relative viability (VA-ES-BJ; 0.04115 µM): 0.448 ± 0.012
relative viability (VA-ES-BJ; 0.1235 µM): 0.415 ± 0.0084
relative viability (VA-ES-BJ; 0.3704 µM): 0.42 ± 0.022
relative viability (VA-ES-BJ; 1.111 µM): 0.419 ± 0.0095
relative viability (VA-ES-BJ; 3.333 µM): 0.415 ± 0.02
relative viability (VA-ES-BJ; 10 µM): 0.377 ± 0.0045
